The record followed here is US20030045680A1, “Peptidic modulators of the androgen receptor” (Praecis Pharmaceuticals Inc., priority 2001, published 2003).

Experiment [1] addresses T1, glutathione S-transferase/human androgen receptor DNA binding domain (amino acids 505-635) (GST-DBD) (Homo sapiens, UniProt P10275).
T1 construct: gift of Dr. Steven Balk (neither purchased nor made by the applicant)
T1 sequence (P10275 505-635): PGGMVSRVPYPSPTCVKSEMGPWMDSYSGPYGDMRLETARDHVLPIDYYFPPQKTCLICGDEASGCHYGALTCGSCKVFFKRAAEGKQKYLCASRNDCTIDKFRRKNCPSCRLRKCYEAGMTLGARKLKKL
Briefly: ARE binding assay (competition binding, electrochemiluminescence). The protocol:
Anti-glutathione S-transferase monoclonal antibody was purchased from Upstate Biotechnology, Inc., Lake Placid, N.Y. (catalogue #05-311). Prior to ruthenium labeling, 1 mg/ml antibody was dialyzed against phosphate-buffered saline, pH 7.2, for 24 hours at 4° C. A 0.5 mg of antibody was incubated with 18.8 μg Origen TAG-succinimidyl ester (IGEN, International, Inc. Gaithersburg, Md., catalogue # 110034) for 1 hour at room temperature in the dark. The reaction was stopped with 20 μl 2M glycine for 10 minutes in the dark. Free label was removed with a NAP-5 column. Protein concentration was determined using the micro-BCA assay (catalogue #23235ZZ) from Pierce, Rockford, Ill.
Oligonucleotides were purchased from Integrated DNA Technologies, Inc., Coralville, Iowa. One nmole of each complementary oligonucleotide, Biotin-5′-[…]-3′ (SEQ ID NO:54) and 5′-[…]-3′ (SEQ ID NO:55) was added to 10 μl water and heated to 95° C. for 2 minutes. NaCl was added to a final concentration of 50 mM and the oligonucleotides were allowed to anneal at room temperature. After 1 hour, the annealed oligonucleotides were resuspended in 1 ml water.
The glutathione S-transferase/human androgen receptor DNA binding domain (amino acids 505-635) (GST-DBD) was obtained from Dr. Steven Balk. Synthesis of similar androgen receptor fusion proteins has been previously described (Sun, Z., Pan, J. and Balk, S. P. (1997) Nucleic Acids Research 25:3318-3325). The competition binding assay was performed in phosphate-buffered saline, pH 7.2, containing 100 ng/ml poly dI/dC (Sigma-Aldrich Co., St. Louis, Mo., catalogue #P4929) in a final volume of 0.2 ml by incubating 3 ng oligonucleotide, 200 ng GST-DBD, 30 ng antibody and the desired concentration of test compound. After 1.5 hours in the dark at room temperature, 12.5 μg streptavidin-coated M-280 Dynabeads (IGEN International, Inc. Gaithersburg, Md., catalogue # 402-175-02) were added and incubated while shaking for 30 minutes in the dark. Plates were analyzed on an IGEN M8 Electrochemiluminescence Detection Unit (IGEN, International, Inc. Gaithersburg, Md.).

The target in experiment [2] is T2, glutathione S-transferase/human androgen receptor DNA binding domain (amino acids 505-635) (human), P10275.
T2 chain: T1 sequence (P10275 505-635)
Briefly: ECL competition binding assay (IGEN M8): peptide against GST-DBD binding to biotinylated ARE oligonucleotide.

Experiment [3] has as its target T3, glutathione S-transferase/human androgen receptor DNA binding domain (amino acids 505-635) (human, UniProt P10275 505-635).
T3 construct: Fusion protein obtained from Dr. Steven Balk; also called GST-DBD; not shown: glutathione S-transferase fusion partner
T3 sequence (looked up): T1 sequence (P10275 505-635)
The description is as above.

The target of experiment [4] is glutathione S-transferase/human androgen receptor DNA binding domain (amino acids 505-635) (human) (UniProt P10275). Described as above.
In experiment [5] the target is T2, glutathione S-transferase/human ….
[6] abbreviates: inhibition of binding of androgen receptor DNA binding domain to biotinylated ARE oligonucleotide, average where more than one assay, replications in parentheses, read-out: IC50.

Like-named read-outs stand apart in the source and are kept apart here. Square brackets hold non-standard residues; d marks the D form. Peptide text beside a SMILES is read from it. A value given as a limit tells only on which side of the number the result lay.

One may read the IC50 as the concentration that gives 50% inhibition.

With `CC[C@@H](C)[C@@H](NC(C)=O)C(=O)N[C@H](CCC(=O)O)C(=O)N[C@H](CO)C(=O)N[C@H](CO)C(=O)N[C@H](CO)C(=O)N[C@H](CC(=O)O)C(N)=O` [compound 38, Ac-iesssd-NH2] (Ac-[dI][dE][dS][dS][dS][dD]-NH2), the IC50 in experiment [1] (setting [6]) was determined as 20 µM.

For `CC[C@@H](C)[C@@H](NC(=O)[C@@H](CCC(=O)O)NC(=O)[C@@H](CO)NC(=O)[C@@H](CO)NC(=O)[C@@H](CO)NC(=O)[C@@H](CC(=O)O)NC(C)=O)C(N)=O` [compound 39, Ac-dsssei-NH2] (Ac-[dD][dS][dS][dS][dE][dI]-NH2), the IC50 in experiment [1] (setting [6]) was determined as 20 µM. Take “Ac-ATIESSSDEE-NH2 [compound 16, Ac-ATIESSSDEE-NH2]”: in experiment [1] (setting [6]), the IC50 stood at 25 µM. As for “Ac-DSSSEI-NH2 [compound 37, Ac-DSSSEI-NH2]”, the concentration for half-maximal inhibition (IC50) in experiment [1] (setting [6]) stood at 20 µM. The same measure, in the same setting: the value for “Ac-EDPPAKRKAIFMSETQSSPTK-NH2 [compound 4]” was more than 50 µM; that for “Ac-ESSSDE-NH2 [compound 50, Ac-ESSSDE-NH2]” was 11 µM; that for “Ac-IASASD-NH2 [compound 33, Ac-IASASD-NH2]” was 20 µM.

Regarding “Ac-IESASD-NH2 [compound 32, Ac-IESASD-NH2]”, the half-inhibitory concentration (IC50) in experiment [1] (setting [6]) was 20 µM. The same measure, in the same setting: to “Ac-IESLSD-NH2 [compound 35, Ac-IESLSD-NH2]” belongs 20 µM. Still for that read-out and setting: the value for “Ac-IESSSDEE-NH2 [compound 48, Ac-IESSSDEE-NH2]” was more than 50 µM.

On to “Ac-KGVLMYQSSVRVPSVTSVDP-NH2 [compound 6]”, for which the concentration for half-maximal inhibition (IC50) in experiment [1] (setting [6]) is more than 50 µM. Take “Ac-KPASVTVASDASKKIDVIDL-NH2 [compound 2]”: the IC50 in experiment [1] (setting [6]) is more than 50 µM. Same read-out and setting: the value for “Ac-KVESSSVFS-NH2 [compound 9, Ac-KVESSSVFS-NH2]” was more than 50 µM; that for “Ac-LAIESSSDEE-NH2 [compound 17, Ac-LAIESSSDEE-NH2]” was 25 µM; that for “Ac-LTAESSSDEE-NH2 [compound 18, Ac-LTAESSSDEE-NH2]” was 25 µM. The same measure, in the same setting: the value for “Ac-LTIESS-NH2 [compound 26, Ac-LTIESS-NH2]” was more than 50 µM; that for “Ac-LTIESSSAEE-NH2 [compound 22, Ac-LTIESSSAEE-NH2]” was 20 µM; that for “Ac-LTIESSSDEE-OH [compound 30, Ac-LTIESSSDEE-OH]” was 7.4 µM. Still for that read-out and setting: to “Ac-LTIESSSDEEEDPPAKRKAIF-NH2 [compound 3]” belongs 22 µM; to “Ac-SSSDEE-NH2 [compound 51, Ac-SSSDEE-NH2]”, 22 µM. As for “Ac-TIESSSDE-NH2 [compound 28, Ac-TIESSSDE-NH2]”, the IC50 in experiment [1] (setting [6]) is 22 µM. As to “Ac-TIESSSDEE-NH2 [compound 27, Ac-TIESSSDEE-NH2]”, the 50% inhibitory concentration (IC50) in experiment [1] (setting [6]) came to 22 µM. With “Ac-TPVSSMSSDL-NH2 [compound 14, Ac-TPVSSMSSDL-NH2]”, the IC50 in experiment [1] (setting [6]) was found to be 7.4 µM. On the same count and under the same terms, the value for “Ac-VRVPSVTSVDPAAIPPSLTDY-NH2 [compound 7]” was more than 50 µM; that for “H-LTIESSSDEE-NH2 [compound 15, H-LTIESSSDEE-NH2]” was 25 µM. “H-YGRKKRRQRRRGGGGLTIESSSDEE-NH2 [compound 54]” showed a half-maximal inhibitory concentration (IC50) in experiment [1] of 6.5 µM.

B1: Ac-IESLSD-NH2 (peptide)
peptide: Ac-IESLSD-NH2
The molecule B1 returned a half-maximal inhibitory concentration (IC50) in experiment [2] of 20 µM.

B2: Ac-LTIESSSDE-NH2 (peptide)
peptide: Ac-LTIESSSDE-NH2
notes: truncation of Cmpd 10; also called Cmpd No. 25
The molecule B2 had a 50% inhibitory concentration (IC50) in experiment [3] of 30 µM.

B3: Ac-SVPFHHTPVS-NH2 (peptide)
peptide: Ac-SVPFHHTPVS-NH2
notes: synthetic peptide of the series based on amino acids 423-548 of ARIP3; also called Cmpd No. 13
In experiment [3], B3 returned a concentration for half-maximal inhibition (IC50) of 27 µM.

B4: Ac-PAAIPPSLTDYSVPFHHTPVSSMSSDL-NH2 (peptide)
peptide: Ac-PAAIPPSLTDYSVPFHHTPVSSMSSDL-NH2
notes: synthetic peptide of the series based on amino acids 423-548 of ARIP3; also called Cmpd No. 8
B4 had a half-inhibitory concentration (IC50) in experiment [3] of 28 µM.

B5: Ac-TIESSSD-NH2 (peptide)
peptide: Ac-TIESSSD-NH2
notes: truncation of Cmpd 10; also called Cmpd No. 29
In experiment [3], B5 returned an IC50 of 40 µM.

B6: Ac-FMSETQSSPTK-NH2 (peptide)
peptide: Ac-FMSETQSSPTK-NH2
notes: synthetic peptide of the series based on amino acids 423-548 of ARIP3; also called Cmpd No. 11
For B6, in experiment [3], the IC50 came out at 5.6 µM.

B7: Ac-DSSSEI-NH2 (peptide)
peptide: Ac-DSSSEI-NH2
notes: also called Cmpd No. 37
As for B7, the IC50 in experiment [4] and in experiment [3] was 20 µM in each case.

B8: Ac-IESFSD-NH2 (peptide)
peptide: Ac-IESFSD-NH2
notes: variant of Cmpd 49 (IESSSD); also called Cmpd No. 34
For the molecule B8, the IC50 in experiment [3] stood at 63 µM.

B9: Ac-IESVSD-NH2 (peptide)
peptide: Ac-IESVSD-NH2
notes: variant of Cmpd 49 (IESSSD); also called Cmpd No. 36
Turning to B9, in experiment [3], the IC50 amounted to 5.3 µM.

B10: Ac-IESSSD-NH2 (peptide)
peptide: Ac-IESSSD-NH2
notes: truncation of Cmpd 10; also called Cmpd No. 49
Molecule B10 registered a half-inhibitory concentration (IC50) in experiment [3] of 4.3 µM.

B11: Ac-KVESSSVFSKPASVTVASDA-NH2 (peptide)
peptide: Ac-KVESSSVFSKPASVTVASDA-NH2
notes: synthetic peptide of the series based on amino acids 423-548 of ARIP3; also called Cmpd No. 1
With B11, the IC50 in experiment [3] is 34 µM.

B12: Ac-FMSETQSSPTKGVLMYQPSSV-NH2 (peptide)
peptide: Ac-FMSETQSSPTKGVLMYQPSSV-NH2
notes: synthetic peptide of the series based on amino acids 423-548 of ARIP3; also called Cmpd No. 5
Regarding B12, the IC50 in experiment [3] came to 15 µM.

B13: Ac-ESSSDE-NH2 (peptide)
peptide: Ac-ESSSDE-NH2
Regarding B13, the IC50 in experiment [2] came to 11 µM.

B14: Ac-TIESSS-NH2 (peptide)
peptide: Ac-TIESSS-NH2
notes: truncation of Cmpd 10; also called Cmpd No. 47
Consider B14, for which the 50% inhibitory concentration (IC50) in experiment [3] came to 12 µM.

B15: Ac-SVPFHHTPVSSMSSDL-NH2 (peptide)
peptide: Ac-SVPFHHTPVSSMSSDL-NH2
notes: synthetic peptide of the series based on amino acids 423-548 of ARIP3; also called Cmpd No. 12
In experiment [3], B15 gave a half-inhibitory concentration (IC50) of 8.2 µM.

B16: Ac-LTIESSSDEEEDPPAKRKAIF-NH2 (peptide)
peptide: Ac-LTIESSSDEEEDPPAKRKAIF-NH2
notes: synthetic peptide of the series based on amino acids 423-548 of ARIP3; also called Cmpd No. 3
In the case of B16, the half-maximal inhibitory concentration (IC50) in experiment [3] stood at 22 µM.

B17: Ac-LTIESSSDEE-NH2 (peptide)
peptide: Ac-LTIESSSDEE-NH2
notes: synthetic peptide of the series based on amino acids 423-548 of ARIP3; also called Cmpd No. 10
The molecule B17 returned a half-inhibitory concentration (IC50) in experiment [3] of 4.7 µM.

B18: Ac-LTIESSSDEA-NH2 (peptide)
peptide: Ac-LTIESSSDEA-NH2
notes: also called Cmpd No. 24
On to B18, for which the IC50 in experiment [3] was determined as 2.6 µM.

B19: Ac-LTIESSSDAE-NH2 (peptide)
peptide: Ac-LTIESSSDAE-NH2
notes: also called Cmpd No. 23
With B19, the concentration for half-maximal inhibition (IC50) in experiment [3] was found to be 14 µM.

B20: Ac-LTIEASSDEE-NH2 (peptide)
peptide: Ac-LTIEASSDEE-NH2
notes: also called Cmpd No. 20
B20 returned an IC50 in experiment [3] of 18 µM.

B21: Ac-LTIASSSDEE-NH2 (peptide)
peptide: Ac-LTIASSSDEE-NH2
notes: also called Cmpd No. 19
With B21, the half-inhibitory concentration (IC50) in experiment [3] was determined as 6.6 µM.

B22: Ac-LTIESASDEE-NH2 (peptide)
peptide: Ac-LTIESASDEE-NH2
notes: also called Cmpd No. 21
In turn, B22 returned a 50% inhibitory concentration (IC50) in experiment [3] of 1.5 µM.

B23: Ac-IESSSDE-NH2 (peptide)
peptide: Ac-IESSSDE-NH2
notes: truncation of Cmpd 10; also called Cmpd No. 53
B23 came in with a concentration for half-maximal inhibition (IC50) in experiment [3] of 19 µM.

B24: H-…-NH2 (peptide)
peptide: H-YGRKKRRQRRRGGGGLTIESSSDEE-NH2
In experiment [5], B24 gave an IC50 of 6.5 µM.
